From patent publication US20100075960A1 (priority 2006, published 2010)

Key:
Assay type in all cases: cell-based
SKOV-3 = assay: Inhibition of cell proliferation, SKOV-3; settings: Homo sapiens, SK-OV-3; Ovarian; 72 h; methylene blue or CellTiter-Glo
Protocol: (§1) II. Inhibition of Cell Proliferation by PLK1 Inhibitors.
(§2) Exponentially growing cell lines of different tumor origins, cultured in appropriate media containing 10% fetal bovine serum at 37° C. in a 5% CO2 incubator were plated in 96 or 384-well plates. Twenty four hours post-plating, cells were treated with different concentrations of test compounds ranging from 20 μM to 0.04 nM. Several wells were left untreated as a control. Seventy two hours post-treatment, cell numbers were determined using different techniques; 100 μl per well of methylene blue (Sigma M9140) (0.5% in 50:50 Ethanol:water), or 10-100 μl per well of CellTiter-Glo (Promega #G7573), depending on well size. For methylene blue staining, stain was incubated at room temperature for 30 minutes before plates were rinsed and dye solubilized in 1% N-lauroyl sarcosine, sodium salt, (Sigma L5125, in PBS). Plates were read on a microplate reader, measuring the OD at 620 nm. For CellTiter-Glo, plates were incubated at room temperature for 15 minutes and the chemiluminescent signal was read on the Victor V or Envison 2100 reader.
(§3) Percent inhibition of cell growth was expressed as percent proliferation relative to 100% proliferation (control). Concentration of test compound that inhibited 50% of cell growth (IC50) was determined by 4 parameter fit of data using XLfit, (value of no cell control was substracted from all samples for background). The data are shown in Table 1 and Table 2 below and represent a compilation of several different experiments each performed using the general parameters outlined above, although minor variations may have been employed in some instances, in Table 1 and Table 2, +=IC50>1 μM; ++=IC50 0.5-1 μM: +++=IC50<0.5 μM.

A549-L = assay: Inhibition of cell proliferation, A549-L; settings: lung; 72 h; methylene blue or CellTiter-Glo
Protocol: as §1, §2, §3

EB-3 = assay: Inhibition of cell proliferation, EB-3; settings: Homo sapiens, peripheral blood, 72 h, methylene blue or CellTiter-Glo
Protocol: as §1, §2
(§4) Percent inhibition of cell growth was expressed as percent proliferation relative to 100% proliferation (control). […]

SKMEL5 = assay: Inhibition of cell proliferation, SKMEL5; settings: Homo sapiens, SK-MEL-5; skin; 72 h; methylene blue or CellTiter-Glo
Protocol: as §1, §2, §4

LoVo = assay: Inhibition of cell proliferation, LoVo; settings: Homo sapiens, colon, 72 h, methylene blue or CellTiter-Glo
Protocol: as §1, §2, §4

CRO-AP2 = assay: Inhibition of cell proliferation, CRO-AP2; settings: Homo sapiens, peripheral blood, 72 h, methylene blue or CellTiter-Glo
Protocol: as §1, §2, §4

LNCaP = assay: Inhibition of cell proliferation, LNCaP; settings: Homo sapiens, Prostate, 72 h, methylene blue or CellTiter-Glo
Protocol: as §1, §2, §4

Capan-2 = assay: Inhibition of cell proliferation, Capan-2; settings: Homo sapiens, pancreas, 72 h, methylene blue or CellTiter-Glo
Protocol: as §1, §2, §4

COLO205 = assay: Inhibition of cell proliferation, COLO205; settings: Homo sapiens, COLO 205; Colon; 72 h; methylene blue or CellTiter-Glo
Protocol: as §1, §2, §3

SK-BR-3 = assay: Inhibition of cell proliferation, SK-BR-3; settings: Homo sapiens, breast, 72 h, methylene blue or CellTiter-Glo
Protocol: as §1, §2, §4

Panc 02.03 = assay: Inhibition of cell proliferation, Panc 02.03; settings: Homo sapiens, pancreas, 72 h, methylene blue or CellTiter-Glo
Protocol: as §1, §2, §4

SKMEL3 = assay: Inhibition of cell proliferation, SKMEL3; settings: Homo sapiens, SK-MEL3; skin; 72 h; methylene blue or CellTiter-Glo
Protocol: as §1, §2, §4

NCI-H358 = assay: Inhibition of cell proliferation, NCI-H358; settings: Homo sapiens, lung, 72 h, methylene blue or CellTiter-Glo
Protocol: as §1, §2, §4

PANC-1 = assay: Inhibition of cell proliferation, PANC-1; settings: Homo sapiens, pancreatic, 72 h, methylene blue or CellTiter-Glo
Protocol: as §1, §2, §4

A431 = assay: Inhibition of cell proliferation, A431; settings: Homo sapiens, A-431; skin; 72 h; methylene blue or CellTiter-Glo
Protocol: as §1, §2, §4

NCI-H727 = assay: Inhibition of cell proliferation, NCI-H727; settings: Homo sapiens, lung, 72 h, methylene blue or CellTiter-Glo
Protocol: as §1, §2, §4

A2780 = assay: Inhibition of cell proliferation, A2780; settings: Homo sapiens, ovary, 72 h, methylene blue or CellTiter-Glo
Protocol: as §1, §2, §4

BC-2 = assay: Inhibition of cell proliferation, BC-2; settings: peripheral blood, 72 h, methylene blue or CellTiter-Glo
Protocol: as §1, §2, §4

MV522 = assay: Inhibition of cell proliferation, MV522; settings: Lung, 72 h, methylene blue or CellTiter-Glo
Protocol: as §1, §2, §4

BC-1 = assay: Inhibition of cell proliferation, BC-1; settings: Homo sapiens, BC1; peripheral blood; 72 h; methylene blue or CellTiter-Glo
Protocol: as §1, §2, §4

HT29 = assay: Inhibition of cell proliferation, HT29; settings: Homo sapiens, HT-29; Colon; 72 h; methylene blue or CellTiter-Glo
Protocol: as §1, §2, §3

MX-1 = assay: Inhibition of cell proliferation, MX-1; settings: Homo sapiens, MX1; Breast; 72 h; methylene blue or CellTiter-Glo
Protocol: as §1, §2, §3

MCF7 = assay: Inhibition of cell proliferation, MCF7; settings: Homo sapiens, Breast, 72 h, methylene blue or CellTiter-Glo
Protocol: as §1, §2, §4

U87-MG = assay: Inhibition of cell proliferation, U87-MG; settings: Homo sapiens, U-87 MG; brain; 72 h; methylene blue or CellTiter-Glo
Protocol: as §1, §2, §4

HCT-15 = assay: Inhibition of cell proliferation, HCT-15; settings: Homo sapiens, colon, 72 h, methylene blue or CellTiter-Glo
Protocol: as §1, §2, §4

SKMEL28 = assay: Inhibition of cell proliferation, SKMEL28; settings: Homo sapiens, SK-MEL-28; skin; 72 h; methylene blue or CellTiter-Glo
Protocol: as §1, §2, §4

HCC1937 = assay: Inhibition of cell proliferation, HCC1937; settings: Homo sapiens, breast, 72 h, methylene blue or CellTiter-Glo
Protocol: as §1, §2, §4

HT-1080 = assay: Inhibition of cell proliferation, HT-1080; settings: Homo sapiens, connective tissue, 72 h, methylene blue or CellTiter-Glo
Protocol: as §1, §2, §4

HCT116 = assay: Inhibition of cell proliferation, HCT116; settings: Homo sapiens, HCT-116; 72 h treatment; methylene blue or CellTiter-Glo

## C[C@@H](Oc1cc(-n2cnc3cc(-c4cnn(C)c4)ccc32)sc1C(N)=O)c1cccc(OC2CCN(C)CC2)c1Cl [Example 48]
SKOV-3
  IC50: < 0.5 µM
A549-L
  IC50: < 0.5 µM
EB-3
  IC50: < 0.5 µM
SKMEL5
  IC50: < 0.5 µM
LoVo
  IC50: < 0.5 µM
CRO-AP2
  IC50: < 0.5 µM
LNCaP
  IC50: < 0.5 µM
Capan-2
  IC50: > 1 µM
COLO205
  IC50: < 0.5 µM
SK-BR-3
  IC50: < 0.5 µM
Panc 02.03
  IC50: < 0.5 µM
SKMEL3
  IC50: < 0.5 µM
NCI-H358
  IC50: < 0.5 µM
PANC-1
  IC50: < 0.5 µM
A431
  IC50: < 0.5 µM
NCI-H727
  IC50: > 1 µM
A2780
  IC50: < 0.5 µM
BC-2
  IC50: > 1 µM
MV522
  IC50: < 0.5 µM
BC-1
  IC50: < 0.5 µM
HT29
  IC50: < 0.5 µM
MX-1
  IC50: < 0.5 µM
MCF7
  IC50: < 0.5 µM
U87-MG
  IC50: < 0.5 µM
HCT-15
  IC50: < 0.5 µM
SKMEL28
  IC50: > 1 µM
HCC1937
  IC50: > 1 µM
HT-1080
  IC50: < 0.5 µM
HCT116
  IC50: < 0.5 µM
